SMILES strings stand for the structures. Read-outs that look alike come from different tables or passages of the source.

These results are taken from paper PMC8335727 (Inorganic Chemistry, 2021).

For series [1] the following is noted: ref [67]; cited from earlier work.
In series [2] the test system is SW480, MES-SA, MES-SA/Dx5, HL60, 41M, SK-BR-3. Also on record: method as in PMID 32336116, PMID 22189939, PMID 31250199. Conditions: several human cancer cells; ref [36],[58],[80]; read-out: IC50 values reported; cited from earlier work.
In series [3] the test system is MRC-5. Details: method as in doi:10.1039/D0NJ01070G. Conditions: 72 h of exposure; ref [77]; cited from earlier work.
Series [4] has as its system Colo320. Also on record: method as in doi:10.1039/D0NJ01070G. Conditions: 72 h of exposure; ref [77]; cited from earlier work.
In series [5] the test system is Colo205. Details: method as in doi:10.1039/D0NJ01070G. Conditions: 72 h of exposure; ref [77]; cited from earlier work.
Series [6] concerns SW480 cells. As to the kind of experiment: Cell cycle distribution by flow cytometry. Conditions: 0.01 μM; 24 h. In kind it is cell-based, human. An excerpt: […] TEXT PRINTED IN THE PICTURE: (A) no label printed: S: 27.7% | (B) no label printed: S: 33.8% | (C) no label printed: S: 44.0% | (D) no label printed: S: 46.5% DOUBTS OF THE COPYIST ABOUT THIS PICTURE: No substance labels are printed in the picture, only the panel letters A-D. / The phase label "S" is printed only in panel A. Applying it to the percentages in panels B, C and D is assumed from where the marker line sits.
(A flow cytometer gives signals particle by particle.)

Series [7] addresses T1, mouse R2 RNR protein (Mus musculus, UniProt P11157).
T1 construct: made in house
T1 sequence (P11157 1-390): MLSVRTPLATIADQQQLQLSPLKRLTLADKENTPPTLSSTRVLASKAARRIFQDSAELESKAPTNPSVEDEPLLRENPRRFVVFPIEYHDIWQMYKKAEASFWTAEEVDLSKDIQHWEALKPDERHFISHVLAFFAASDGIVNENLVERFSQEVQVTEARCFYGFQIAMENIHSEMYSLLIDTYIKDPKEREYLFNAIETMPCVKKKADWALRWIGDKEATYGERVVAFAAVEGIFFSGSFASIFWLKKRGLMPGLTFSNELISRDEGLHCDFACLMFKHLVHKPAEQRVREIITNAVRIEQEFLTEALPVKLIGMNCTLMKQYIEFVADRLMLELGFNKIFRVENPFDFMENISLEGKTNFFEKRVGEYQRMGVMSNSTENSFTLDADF
In words: Tyrosyl radical reduction in mouse R2 RNR protein (EPR). In kind it is biochemical. Conditions: 20 μM compound; for effect on the tyrosyl radical content in the presence of DTT: 2 mM DTT; for effect on the tyrosyl radical in the absence of DTT: no DTT. How it is done:
The time-dependent tyrosyl radical reduction in mR2 RNR by equimolar concentrations of TSCs and their respective copper(II) complexes, under reducing conditions, is shown in Figure 15. […] The favorable impact of the copper(II) coordination on the HL^2 inhibitory activity is quite obvious, when the ability to quench the tyrosyl radical by HL^2 is compared to that of 2′.
The samples contained 20 μM mR2 in 50 mM HEPES buffer, pH 7.60/100 mM KCl, 20 μM compound in 1% (v/v) DMSO/H2O, and 2 mM DTT. […]
2.6. Tyrosyl radical reduction in mouse R2 RNR protein
The tyrosyl radical reduction in mR2 protein by HL1, HL2, HL3, Cu(HL1)Cl2, [Cu(L2)Cl],
Cu(HL3)Cl2, HL1a’, HL1a’’, and HL2c´·CH3COOH was measured by EPR spectroscopy at 30 K,
on a Bruker Elexsys II E540 EPR spectrometer with an Oxford Instruments ER 4112HV helium
cryostat, as described previously.12,13 mR2 protein was expressed, purified, and iron -reconstituted
as described previously, 14 and passed through a 5 mL HiTrap desalting column (GE Healthcare)
(§1) 0.76 tyrosyl radical/polypeptide. Samples containing 20 µM mR2 in 50 mM HEPES buffer, pH
(§2) 7.50/100 mM NaCl, and 20 µM respective compound in 1% (v/v) DMSO/H2O, and 2 mM
dithiothreitol (DTT) were incubated for indicated times and quickly frozen in cold isopentane. The
same samples were used for repeated incubations at room temperature. […]
Furthermore, the intrinsic reaction coordinate (IRC) analysis was
performed to authenticate that the transition state pertains to the desired reaction coordinate. The
IRC calculations were done at the B3LYP/6-311++G(d,p) level of theory. Molecular orbitals were
drawn using Molekel software.17
3. Schemes for assignment of resonances in HL1 – HL3 and their isomers
Scheme S1. The atom numbering for the assignment of resonances in HL1 – HL3.
(1 picture or pasted object on this page, not shown here)

Series [8] has as its system Colo205. In words: MTT cytotoxicity assay, Colo205. In kind it is cell-based. Conditions: Homo sapiens, COLO 205, 72 h of exposure. The protocol: (§3) The in vitro cytotoxicity of the TSCs HL^1–HL^3, copper(II) complexes Cu(HL^1)Cl2, [Cu(L^2)Cl], and Cu(HL^3)Cl2, and oxidized TSCs HL^1a′, HL^1a″, and HL^2c′·CH3COOH was tested in the doxorubicin-sensitive Colo205 and the multidrug-resistant Colo320 human colonic adenocarcinoma cell lines as well as in normal human embryonal lung fibroblast cells (MRC-5) by the colorimetric MTT assay. […]
(§4) 2.5. In vitro cell studies
(§5) 2.5.1. Cell lines and culture conditions
(§6) All cell culture reagents were obtained from Sigma-Aldrich and plastic ware from Sarstedt
(§7) (Germany). Doxorubicin-sensitive human colonic Colo 205 and multidrug resistant
(§8) Colo 320/MDR-LRP adenocarcinoma cell lines were purchased from LGC Promochem,
(§9) Teddington, UK. The cells were cultured in Roswell Park Memorial Institute (RPMI) 1640
(§10) medium supplemented with 10% heat-inactivated fetal bovine serum, 2 mM L-glutamine, 1 mM
(§11) Na-pyruvate and 100 mM Hepes. The cell lines were incubated at 37°C, in a 5% CO2, 95% air
(§12) MRC-5 human embryonal lung fibroblast cell line (ATCC CCL-171) was purchased from LGC
(§13) Promochem, Teddington, UK. The cell line was cultured in Eagle’s Minimal Essential Medi um
(§14) (EMEM, containing 4.5 g/L glucose) supplemented with a non-essential amino acid mixture, a
(§15) selection of vitamins and 10% heat-inactivated fetal bovine serum. The cells were incubated at
(§16) 37°C, in a 5% CO2, 95% air atmosphere. All cell lines were detached with Trypsin-Versene
(§17) (EDTA) solution for 5 min at 37 °C.
(§18) The tested compounds were dissolved in DMSO using 10 mM concentration. Then stock solutions
(§19) were diluted in complete culture medium in 96-well microtiter plates, and two-fold serial dilutions
(§20) of compounds were prepared in 100 µL of RPMI 1640, horizontally. The semi-adherent colonic
(§21) adenocarcinoma cells were treated with Trypsin -Versene (EDTA) solution. They were adjusted to
(§22) a density of 1×10^4 cells in 100 µL of RPMI 1640 medium, and were added to each well, with the
(§23) exception of the medium control wells. The final volume of the wells containing compounds and
(§24) cells was 200 µL. The culture were incubated at 37 °C for 72 h; at the end of the incubation period,
(§25) 20 µL of MTT solution (from a stock solution of 5 mg/mL) were added to each well. After
(§26) incubation at 37 °C for 4 h, 100 µL of SDS solution (10% in 0.01 M HCI) were added to each well
(§27) and the plates were further incubated at 37 °C overnight. The cell growth was determined using
(§28) both methods by measuring the optical density (OD) at 450 nm (ref. 620 nm) with a Multiscan EX
(§29) ELISA reader. Inhibition of the cell growth (expressed as IC 50: inhibitory concentration that
(§30) reduces by 50% the growth of the cells exposed to the tested compounds) was determined from
(§31) the sigmoid curve where 100 – ((ODsample ‒ ODmedium control)/(ODcell control ‒ ODmedium control)) × 100
(§32) values were plotted against the logarithm of compound concentrations. […]
as §1, §2
(In general: Tetrazolium dyes change colour on reduction, which living cells bring about.)

Series [9] deals with Colo320. In words: MTT cytotoxicity assay, Colo320. In kind it is cell-based. Conditions: Homo sapiens, COLO 320, 72 h of exposure. How it is done: as §3, §4, §5, §6, §7, §8, §9, §10, §11, §12, §13, §14, §15, §16, §17, §18, §19, §20, §21, §22, §23, §24, §25, §26, §27, §28, §29, §30, §31, §32, §1, §2
For series [10], the system named is MRC-5. As to the kind of experiment: MTT cytotoxicity assay, MRC-5. In kind it is cell-based. Conditions: Homo sapiens, MRC5, 72 h of exposure. The protocol:
as §4, §5
All cell culture reagents were obtained from Sigma-Aldrich and plastic ware from Sarstedt […]
as §12, §13, §14, §15, §16, §17, §18, §19, §20, §21, §22, §23, §24, §25, §26, §27, §28, §29, §30, §31, §32

In the case of `C/C(=N\NC(N)=S)c1ccccn1` [AcTSC, 2-acetylpyridine TSC], the “log D7.4” value in series [1] is “+1.02”. In addition, the IC50 (commonly the concentration needed to halve the response being measured) in [2] is 2.5 to 3.6 µM.

Regarding `[Cl][Cu][Cl]` [CuCl2, copper(II) chloride], the IC50 in series [3] was 24.5 µM; in series [4], 20 µM; in series [5], 19.7 µM.

Consider `NC(=S)NN=Cc1ccccn1` [FTSC, 2-formylpyridine TSC], for which the “log D7.4” value in [1] is “+0.73”. Also, the half-inhibitory concentration (IC50) in [2] was 1.9 to 10.6 µM.

In series [6], `Nc1ccn([C@@H]2O[C@H](CO)[C@@H](O)C2(F)F)c(=O)n1` [Gemcitabine, reference compound] had a G1 phase cells of 26.8% and a S phase cells of 62.3%.

Consider `Cc1cc(Nc2nnc(-c3ccccn3)s2)cc(C)c1O` [HL^1a′], for which, in [7], the “effect on the tyrosyl radical content in the presence of DTT” value is on record as “cause an increase in the radical content”. For the same compound, in series [7], the “effect on the tyrosyl radical in the absence of DTT” value is reported as “do not have an effect”. The half-maximal inhibitory concentration (IC50) in [8], in [9] and in series [10] was more than 25 µM in each case.

As for `CC1=CC(=Nc2nnc(-c3ccccn3)s2)C=C(C)C1=O` [HL^1a″], the “effect on the tyrosyl radical content in the presence of DTT” value in series [7] is recorded as “cause an increase in the radical content”. Further, the “effect on the tyrosyl radical in the absence of DTT” value in [7] was “do not have an effect”. The IC50 in series [8], in series [9] and in series [10] was more than 25 µM throughout.
